# Results from patent publication US20140271694A1, “ANTIGEN-SPECIFIC METHODS OF DIAGNOSING AND/OR TREATING MYOCARDITIS OR INFLAMMATORY CARDIOMYOPATHY” (Joslin Diabetes Center, Inc., priority 2013, published 2014).
# “Also recorded” adds a separate entry of the source.
# How the values were obtained:
# NOD mice = details: cited from earlier work
# I-Ag7 = details: I-Ag7, dose dependent; cited from earlier work
# [1] = test system: alpha myosin HC presentation to DQ8 molecules; experiment: Cardiac myosin-specific DQ8-restricted Clone E T cell hybridoma (BWZ.36.CE, lacZ/β-galactosidase readout) antigen presentation assay; type: cell-based, human; details: in vitro, dose-dependent, DQ8-expressing APCs
# Description: FIGS. 15A-C are data showing that the small molecule, tetraazatricyclododecane (TATD), that was predicted to bind pocket 6 of the DQ8 peptide-binding groove (Michels et al, Journal of immunology, 2011), inhibits cardiac myosin presentation by DQ8 to T cells. FIGS. 15A and B are graphs showing that T cell response to insulin B9:23 peptide, measured by IL-2 concentration, is blocked by TATD in a dose dependent manner, for DQ8 and I-Ag7 (Michels et al., Journal of Immunology, 2011). FIG. 15C is a graph showing that T cell response to cardiac myosin stimulation is blocked in vitro by TATD is a dose-dependent manner, in a manner similar to the blocking effect on insulin B9:23 presentation to DQ8. In this assay, T cell responses were measured using our cardiac myosin-specific DQ8-restricted (Clone E) T cell hybridoma that was engineered to produce β-galactosidase following T-cell receptor-antigen stimulation.
# To assess the potential efficacy in the setting of post-infarct autoimmunity, we created a lacZ-inducible alpha myosin HC-specific CD4^+ T-cell hybridoma by fusing Clone E, a pathogenic DQ8-restricted CD4^+ T cell clone isolated from a myocarditic heart (Lv H et al., J Clin Invest, 2011) (FIGS. 14A-D), and BWZ.36 fusion partner (Karttunen J et al., Proc Natl Acad Sci USA, 1992), and successfully generated the hybrid, BWZ.36.CE. […]
# DQ8 = details: cited from earlier work
structure (smiles),measurement,setting,value
"C1CN2CN3CCN(CN1C3)C2 [TATD, tetraazatricyclododecane]",preventing T1D in NOD mice,NOD mice,efficacious
same,"T cell response to insulin B9:23 peptide, measured by IL-2 concentration",I-Ag7,blocked
same,block of alpha myosin HC presentation to DQ8 molecules (T cell response to cardiac myosin stimulation),[1],completely block; also recorded: blocked
same,"T cell response to insulin B9:23 peptide, measured by IL-2 concentration","DQ8; DQ8, dose dependent",blocked
same,relative potency of blocking DQ8 versus I-Ag7 molecules,DQ8; DQ8 compared with I-Ag7,more potently blocks DQ8 than I-A^g7
